Measurements as given in patent US20230212180A1, “SUBSTITUTED PYRAZINE COMPOUND, PHARMACEUTICAL COMPOSITION COMPRISING SAME, AND USE THEREOF” (Sichuan Kelun-Biotech Biopharmaceutical Co., Ltd., priority 2020, published 2023).
pIC50: −log10 of the molar value. Where two headings read alike, the source gives them in different places.

Columns and labels:
CYP3A4 = target: T1, CYP3A4 (Homo sapiens, UniProt P08684); assay: Biochemical assay for CYP enzyme inhibition, P450-Glo CYP3A4 Screening System; type: in vitro ADME; conditions: for IC50: estimated from percentage inhibition, read-out: IC50 (μM) CYP3A4
T1 construct: purchased Promega
T1 sequence (P08684 whole entry): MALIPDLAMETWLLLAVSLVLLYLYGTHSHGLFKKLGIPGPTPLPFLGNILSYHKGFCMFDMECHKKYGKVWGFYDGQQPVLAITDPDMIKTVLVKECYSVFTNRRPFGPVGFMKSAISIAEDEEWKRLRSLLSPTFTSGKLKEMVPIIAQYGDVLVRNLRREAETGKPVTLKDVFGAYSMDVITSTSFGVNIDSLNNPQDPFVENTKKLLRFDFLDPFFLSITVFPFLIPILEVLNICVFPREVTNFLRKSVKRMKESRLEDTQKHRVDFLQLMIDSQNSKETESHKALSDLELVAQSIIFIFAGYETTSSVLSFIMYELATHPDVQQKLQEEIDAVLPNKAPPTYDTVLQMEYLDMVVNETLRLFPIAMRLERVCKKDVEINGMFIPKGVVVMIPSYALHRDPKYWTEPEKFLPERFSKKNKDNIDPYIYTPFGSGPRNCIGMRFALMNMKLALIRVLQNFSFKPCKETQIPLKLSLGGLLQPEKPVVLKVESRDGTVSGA
Protocol: (§1) Test Example 5: Biochemical Assay for CYP Enzyme (Cytochrome P450) Inhibition
P450-Glo™ CYP3A4 Screening System, (Promega).
(§2) BMG PHERAstar FS Luminescent.
(§3) The experiments were carried out separately according to the instructions of the kits. The steps were as follows:
3.3. Inhibition Against CYP3A4:
Test group: The test compounds at different concentrations were added into a microplate, and Luciferin-IPA ([…]), K3PO4 (100 mM), and CYP3A4 (2 nM) were added into each well, and pre-incubated at room temperature for 10 min. Thereafter, an NADPH regeneration system was added. The mixture was reacted at room temperature for 30 min. Finally, an equal volume of detection buffer was added and incubated at room temperature for 20 min, followed by chemiluminescence detection.
(§4) Negative control group: The experimental method for the negative control group was the same as that for the test group, except that the test compound was not added.
Blank control group: The experimental method for the blank control group was the same as that for the test group, except that the test compound was not added and that CYP3A4 was replaced with CYP3A4 Membrance (2 nM).
(§5) Percentage inhibition=(1−(the chemiluminescent signal value of the test compound group at a certain test concentration−the chemiluminescent signal value of the blank control group)/(the chemiluminescent signal value of the negative control group−the chemiluminescent signal value of the blank control group))×100%.
(§6) When the percentage inhibition was between 30% and 80%, a single value or a value range of the half maximal inhibitory concentration (IC50) of the compound against the CYP enzyme was estimated based on the following equation: IC50=X×(1−percentage inhibition)/percentage inhibition, wherein X was the test concentration of the compound.

[1] = target: T2, recombinant full-length human PTPN11 (SHP2) (Homo sapiens, UniProt Q06124); assay: Inhibition of in vitro enzyme activity of SHP2 (DiFMUP fluorescence endpoint assay); type: biochemical; conditions: SHP2 0.5 nM, DiFMUP 200 μM, IRS-1 0.5 μM; 60 min incubation
T2 construct: recombinant full-length human PTPN11 (SHP2), active (SignalChem); purchased SignalChem
T2 sequence (Q06124 1-593): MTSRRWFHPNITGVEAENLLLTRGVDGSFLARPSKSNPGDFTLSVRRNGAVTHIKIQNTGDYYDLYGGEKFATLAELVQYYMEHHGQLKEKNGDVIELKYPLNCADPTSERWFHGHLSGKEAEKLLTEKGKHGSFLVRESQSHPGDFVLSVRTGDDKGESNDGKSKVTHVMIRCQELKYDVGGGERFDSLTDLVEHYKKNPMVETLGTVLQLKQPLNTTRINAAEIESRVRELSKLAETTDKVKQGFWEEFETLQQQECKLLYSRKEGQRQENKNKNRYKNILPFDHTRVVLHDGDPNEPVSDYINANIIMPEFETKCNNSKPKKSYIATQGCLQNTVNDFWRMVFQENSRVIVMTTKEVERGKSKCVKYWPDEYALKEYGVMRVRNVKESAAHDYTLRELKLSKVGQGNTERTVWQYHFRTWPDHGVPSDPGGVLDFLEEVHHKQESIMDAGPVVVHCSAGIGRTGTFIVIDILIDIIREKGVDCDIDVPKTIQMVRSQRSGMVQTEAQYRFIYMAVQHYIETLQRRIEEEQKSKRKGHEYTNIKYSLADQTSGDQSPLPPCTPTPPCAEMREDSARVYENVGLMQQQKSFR
Method in brief: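 Full-length human SHP2 (0.5 nM) with 0.5 μM IRS1 bis-phosphopeptide preincubated with compound 60 min at room temperature, pH 7.2 HEPES with 5 mM DTT. DiFMUP (200 μM) reacted 30 min, stopped with bpv, fluorescence ex 340/em 450 nm. IC50 by four-parameter logistic fit.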

CYP2D6 = target: T3, CYP2D6 (Homo sapiens, UniProt P10635); assay: Biochemical assay for CYP enzyme inhibition, P450-Glo CYP2D6 Screening System; type: in vitro ADME; conditions: for IC50: estimated from percentage inhibition, read-out: IC50 (μM) CYP2D6
T3 construct: purchased Promega
T3 sequence (P10635 whole entry): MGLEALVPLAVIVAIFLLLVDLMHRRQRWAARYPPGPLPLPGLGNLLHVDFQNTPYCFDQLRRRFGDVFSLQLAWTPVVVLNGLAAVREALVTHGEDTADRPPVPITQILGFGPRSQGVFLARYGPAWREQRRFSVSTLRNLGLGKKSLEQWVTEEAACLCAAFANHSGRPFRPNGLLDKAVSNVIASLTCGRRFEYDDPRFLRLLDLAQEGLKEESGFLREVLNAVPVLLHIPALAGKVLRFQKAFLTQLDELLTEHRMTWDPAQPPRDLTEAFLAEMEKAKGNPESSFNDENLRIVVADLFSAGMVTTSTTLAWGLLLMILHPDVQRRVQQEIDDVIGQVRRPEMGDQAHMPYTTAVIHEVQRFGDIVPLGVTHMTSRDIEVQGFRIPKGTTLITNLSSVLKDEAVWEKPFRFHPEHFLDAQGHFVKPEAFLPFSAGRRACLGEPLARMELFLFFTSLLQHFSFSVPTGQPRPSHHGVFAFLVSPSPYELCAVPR
Protocol: as §1
P450-Glo™ CYP2D6 Screening System, (Promega);
as §2, §3
3.2. Inhibition Against CYP2D6:
Test group: The test compounds at different concentrations were added into a microplate, and Luciferin-ME EGE (3 μM), K3PO4 (100 mM), and CYP2D6 (5 nM) were added into each well, and pre-incubated at room temperature for 10 min. Thereafter, an NADPH regeneration system was added. The mixture was reacted at 37° C. for 30 min. Finally, an equal volume of detection buffer was added and incubated at room temperature for 20 min, followed by chemiluminescence detection.
as §4
Blank control group: The experimental method for the blank control group was the same as that for the test group, except that the test compound was not added and that CYP2D6 was replaced with CYP2D6 Membrance (5 nM).
as §5, §6

| SMILES | pIC50 (CYP3A4) | IC50 [1] [nM] | pIC50 (CYP2D6) | IC50 (CYP3A4) [µM] | IC50 (CYP2D6) [µM] |
| --- | --- | --- | --- | --- | --- |
| C[C@@H]1OCC2(CCN(c3ncc(Sc4ccnc(N5CC(C)(CO)C5)c4Cl)nc3CO)CC2)[C@@H]1N [Example 27, (3-((3S,4S)-4-amino-3-methyl-2-oxa-8-azaspiro[4.5]decan-8-yl)-6-(3-chloro-2-(3-(hydroxymethyl)-3-methylazetidin-1-yl)pyridin-4-ylthio)pyrazin-2-yl)methanol] | < 5.00 | 4.1 | < 5.00 |  |  |
| C[C@@H]1OCC2(CCN(c3cnc(Sc4ccnc(N5CC(C(C)(C)O)C5)c4Cl)cn3)CC2)[C@@H]1N [Example 28, 2-(1-(4-(5-((3S,4S)-4-amino-3-methyl-2-oxa-8-azaspiro[4.5]decan-8-yl)pyrazin-2-ylthio)-3-chloropyridin-2-yl)azetidin-3-yl)propan-2-ol] | < 5.00 | 2.45 | < 5.00 |  |  |
| C[C@@H]1OCC2(CCN(c3ncc(Sc4ccnc(N5CCCC5CO)c4Cl)nc3CO)CC2)[C@@H]1N (stereo partly drawn) [Example 2] |  | 1.82 |  | > 10 | > 10 |
| CC(C)(O)C1CN(c2nccc(Sc3cnc(N4CCC5(CC4)Oc4ccccc4[C@H]5N)c(CO)n3)c2Cl)C1 [Example 22, (R)-2-(1-(4-(5-(3-amino-3H-spiro[benzofuran-2,4′-piperidin]-1′-yl)-6-(hydroxymethyl)pyrazin-2-ylthio)-3-chloropyridin-2-yl)azetidin-3-yl)propan-2-ol] |  | 4.3 |  | > 10 | > 10 |
| C[C@@H]1OCC2(CCN(c3ncc(Sc4ccnc(N5CC(C)(CS(C)(=O)=O)C5)c4Cl)nc3CO)CC2)[C@@H]1N [Example 29, (3-((3S,4S)-4-amino-3-methyl-2-oxa-8-azaspiro[4.5]decan-8-yl)-6-(3-chloro-2-(3-methyl-3-(methylsulfonylmethyl)azetidin-1-yl)pyridin-4-ylthio)pyrazin-2-yl)methanol] | < 5.00 | 1.68 | < 5.00 |  |  |
| C[C@@H]1OCC2(CCN(c3ncc(Sc4ccnc(N5CC(C#N)(CO)C5)c4Cl)nc3CO)CC2)[C@@H]1N [Example 47, 1-(4-(5-((3S,4S)-4-amino-3-methyl-2-oxa-8-azaspiro[4.5]decan-8-yl)-6-(hydroxymethyl)pyrazin-2-ylthio)-3-chloropyridin-2-yl)-3-(hydroxymethyl)azetidine-3-carbonitrile] | < 5.00 | 3.2 | < 5.00 |  |  |
| C[C@@H]1OCC2(CCN(c3ncc(Sc4ccnc(N5CC(CC#N)C5)c4Cl)nc3CO)CC2)[C@@H]1N [Example 5, 2-(1-(4-(5-((3S,4S)-4-amino-3-methyl-2-oxa-8-azaspiro[4.5]decan-8-yl)-6-(hydroxymethyl)pyrazin-2-ylthio)-3-chloropyridin-2-yl)azetidin-3-yl)acetonitrile] | < 5.00 | 1.22 | < 5.00 |  |  |
| C[C@@H]1OCC2(CCN(c3ncc(Sc4ccnc(N5CC(CO)C5)c4Cl)nc3CO)CC2)[C@@H]1N [Example 6, (3-((3S,4S)-4-amino-3-methyl-2-oxa-8-azaspiro[4.5]decan-8-yl)-6-(3-chloro-2-(3-(hydroxymethyl)azetidin-1-yl)pyridin-4-ylthio)pyrazin-2-yl)methanol] | < 5.00 | 1.76 | < 5.00 |  |  |
